Measurements published in patent US7169815B2, “3-methoxybenzyl thiourea derivatives and improved lipid compositions containing same” (The United States of America as represented by the …, priority 2000, dated 2007).
≈ marks a conversion by molar mass, not a printed value. Like-named read-outs stand apart in the source and are kept apart here.

What was measured:
[1] = Oxidative Stability by Rotating Pressure Vessel (RBOT) of refined meadowfoam seed oil plus thiourea compounds; details: for Oxidative Stability (RBOT): Refined Meadowfoam Seed Oil plus 0.1% compound
From the text: Another presently preferred method of determining oxidative stability of lipids and oils employs the Oxidative Stability by Rotating Pressure Vessel (RBOT) test. In this test, oxidative stability, determined according to the ASTM D2272-98 test method (ASTM, 2001, “Standard Test Method for Oxidation Stability of Steam Turbine Oils by Rotating Pressure Vessel,” in Book of Standards, Vol. 05.01., American Society for Testing and Materials, West Conshohocken, Pa.), measures the time for oxygen pressure to decrease in a closed stainless steel vessel containing a lipid or oil when heated with a copper coil catalyst. Oxygen taken up by the lipid or oil during the reaction is an indication of oil degradation.
In these experiments, Oxidative Stability by Rotating Pressure Vessel (RBOT) tests were performed with different 3-methoxybenzyl thiourea compounds synthesized in Example 3 that were mixed in different quantities with different mono- and polyunsaturated vegetable oils. Hexane was used to clean and store the copper coils, but all other aspects of the Oxidative Stability by Rotating Pressure Vessel (RBOT) test were the same as in the standard ASTM D2272–98 test method (ASTM, 2001, “Standard Test Method for Oxidation Stability of Steam Turbine Oils by Rotating Pressure Vessel,” in Book of Standards, Vol. 05.01., American Society for Testing and Materials, West Conshohocken, Pa.).

[2] = UVB and UVA molar absorptivities in chloroform; type: physicochemical; details: 0.01 mg/ml in chloroform; for UVBMAX Molar Absorptivity: Amax in 280–320 nm; for UVAMAX Molar Absorptivity: Amax in 320–400 nm
Procedure: The compounds synthesized in Example 3 were tested to determine their ability to absorb […] UVA light. UV spectra of quantitatively weighed and diluted samples (0.01 mg/ml) in chloroform were scanned from 244–450 nm at 240 nm/min on a Beckman DU 640 spectrophotometer (Beckman Coulter, Inc., Fullerton, Calif.). Amax in the 280–320 nm range was determined and converted to molar absorptivity for the UVB region, and Amax in the 320–400 nm range was determined and converted to molar absorptivity for the UVA region.

[3] = in vivo; details: Artemia salina (brine shrimp), in vivo; for LC50 at 24 h: other: exposure in seawater in microplate wells
Procedure: (§1) Brine shrimp eggs (Artemia salina) were obtained from Brine Shrimp Direct, Ogden, Utah and stored at 10° C. until used. Eggs (400 mg) were added to 1 l of deionized water containing 40 g of sea salts (Sigma Chemical Co., St. Louis, Mo.).
(§2) Serial dilutions were performed in 100 μl of seawater in triplicate in the wells of a 96-well microplate to give appropriate concentrations. Control wells for both water and DMSO were included with each experiment. […] The number of non-motile, and the total number of, naupli were counted in each well using a binocular microscope (10×).

[4] = tested on: Brine Shrimp (Artemia Salina); assay: in vivo; details: for toxicity against brine shrimp, in words: as Table 7 shows; for LC50: in vivo
Procedure: as §1, §2

[5] = Solubility in refined meadowfoam seed oil (HPLC); type: physicochemical; details: oil or lipid, thermodynamic from solid, cooled to room temperature overnight
Procedure: Typical retention times were 7–9 min for the thioureas. Samples were weighed accurately (about 0.1 g) into 1.00 g of refined meadowfoam seed oil and heated to temperature (either 30° C. or 50° C.) for 4 h with occasional shaking. The samples were cooled to room temperature overnight, centrifuged and 0.3 g of the supernatant oil was removed and diluted with 1 ml CHCl3 for testing.

[6] = Decomposition temperature by differential scanning calorimetry; type: physicochemical; details: DSC, onset of decrease in slope of temperature-heat flow curve; unit not given (scans in ° C.)
Procedure: A dual cell Perkin Elmer differential scanning calorimeter (PE DSC 7, Norwalk, Conn.) was used to determine the thermal transitions of the compounds. All scans were carried out from 30° C. to 200° C. at a heating and cooling rate of 10° C./minute and 40° C./min, respectively, except for 1-(3-methoxybenzyl)-3-(1-propenyl) thiourea, for which the scans were carried out from 0° C. to 200° C. at a heating rate of 10° C./min, and 1-(3-methoxybenzyl)-3-octadecyl thiourea, for which both the heating and cooling rates were 10° C./min. 1,3-di(3-methoxybenzyl) thiourea and 1-(3-methoxybenzyl)-3-dodecyl thiourea were heated to 300° C., and 1-(3-methoxybenzyl)-3-(4-methoxybenzoyl) thiourea was heated to 250° C. to determine the decomposition temperature. The decomposition temperature was taken as the onset of a decrease in the slope of the temperature-heat flow DSC curve. The first heating curve was recorded in all cases, and liquid nitrogen was used to quench the samples after the first heating.

[7] = Oxidative Stability Index (OSI) of refined meadowfoam seed oil plus additives
From the text: A presently preferred method of determining oxidative stability of lipids and oils employs the Oxidative Stability Index (OSI), which determines the oxidative stability of an oil by passing air through a sample under stringent temperature control. (Firestone, Oxidative Stability Index (OSI): Official Methods of Recommended Practices of the American Oil Chemists' Society (AOCS), 4th Ed. American Oil Chemists Society, Champaign, Ill., AOCS Official Method Cd 12b-92, 1993.) In this method, a stream of air is passed through the oil sample, which aids in the rapid degradation of the triglyceride into volatile organic acids. The air stream flushes the volatile acids from the oil into a conductivity cell containing water where the acids are solubilized. These acids, once dissolved in the water solution, disassociate into ions, thus changing the conductivity of the water. Therefore, a continuous measure of the conductivity of the cell by computer will indicate when a rapid rise in the conductivity occurs that corresponds to the induction point, oxidative failure of the sample. The time to the induction point is the OSI time. […] Saturated fatty acid methyl ester (FAME) standards commercially available from Alltech Associates (Deerfield, Ill.) may be used to calibrate the OSI determinations.
OSI determinations may be performed on an oxidative stability instrument manufactured by Omnion (Rockland, Mass.) using the AOCS method described in the above-disclosed Firestone reference. Lipid or oil samples may be run at 110° C. and FAMEs may be tested at 90° C., with air flow set at 35 kPa with a resulting velocity of about 140 ml/min. A presently preferred method for determining OSI values is described by T. A. Isbell et al., “Oxidative Stability Index of Vegetable Oils in Binary Mixtures with Meadowfoam Oil,” Industrial Crops and Products 9, 115–123 (1999).
Unless otherwise stated, Oxidative Stability Index (OSI) values were determined on 5.00 ±0.05 g lipid or oil samples in triplicate according to AOCS Official Method Cd 12b-92 (AOCS, 1993) at 90° C., 110° C. and/or 130° C. on an oxidative stability instrument manufactured by Omnion (Rockland, Mass.). Details of the procedure have been published by Isbell et al., “Oxidative Stability Index of Vegetable Oils in Binary Mixtures with Meadowfoam Oil,” Ind. Crops Prod. 9, 115–123 (1999). When compounds of the present invention were added to the lipid or oil sample being tested, the compounds (0.1% to 1.0% by weight) were added to the test lipid or oil (20 g) and dissolved or dispersed at room temperature before triplicate 5.00 g samples of lipid or oil with an added compound of the invention were weighed into the OSI test tube.
The 1,3-di(3-methoxybenzyl) thiourea prepared in Example 3 was mixed at 0.1%, 0.5% or 1.0% with refined meadowfoam seed oil (Lot #CW-4551, The Fanning Corp) and the oxidative stability of the mixtures was compared to that of refined meadowfoam seed oil at 130° C. The OSI times were 49.8 h, 159 h and 172 h, respectively, for the mixtures containing the thiourea compared to an OSI time of 14.9 h for this lot of refined meadowfoam seed oil with no additives at 130° C.
Thus, 1,3-bis(2-methoxyphenyl)-2-thiourea (Aldrich Chem Co.) added at 0. […] Likewise, 1,3-bis(3-methoxyphenyl)-2-thiourea at 0. 1% added to refined meadowfoam oil gave an OSI time of 27.0 h, an […] lower value than for the 1,3-di-(3-methoxybenzyl) thiourea produced in Example 3.

[8] = Behaviour on addition of water to DMSO solution (sample preparation); type: physicochemical; details: dissolved in 50 μl DMSO, water added to make 1 mg/ml
Procedure: Test compounds (1–2 mg) were originally made up at a concentration of 1 mg/ml in artificial seawater, except for water insoluble compounds, which were dissolved in 50 μl of dimethyl sulfoxide (DMSO) prior to adding enough water to make a 1 mg/ml solution. Serial dilutions were performed in 100 μl of seawater in triplicate in the wells of a 96-well microplate to give appropriate concentrations. Control wells for both water and DMSO were included with each experiment. A 100 μl solution of naupli (10–30) was added to each well, and the covered plate was incubated for 24 h at 27° C. The number of non-motile, and the total number of, naupli were counted in each well using a binocular microscope (10×). LC50 values were then calculated by Probit analysis (Finney, D. J., 1971, “Probit Analysis,” 3rd Ed.; University Press: Cambridge [Eng.]).

[9] = heated to 30° C. for 4 h, read-out: Solubility at 30° C.
[10] = heated to 50° C. for 4 h, read-out: Solubility at 50° C.
[11] = refined meadowfoam oil, 0.1% additive, 130° C.
[12] = refined meadowfoam oil, 0.1% additive, 130° C. (Example 8)
[13] = refined meadowfoam seed oil plus additive 0.1%, 130° C.
[14] = refined meadowfoam seed oil plus additive 0.5%, 130° C.
[15] = refined meadowfoam seed oil plus additive 1.0%, 130° C.

| Oxidative Stability (RBOT) [1] | UVBMAX Molar Absorptivity [2] | UVAMAX Molar Absorptivity [2] | solubility at 4 h [5, 9] | solubility at 4 h [5, 10] | Decomposition Temperature [6] | SMILES | LC50 at 24 h [3] | other results |
| --- | --- | --- | --- | --- | --- | --- | --- | --- |
| – | – | – | – | – | – | COc1ccccc1NC(=S)Nc1ccccc1OC [1,3-bis(2-methoxyphenyl)-2-thiourea] | – | OSI time lower than for 1,3-di-(3-methoxybenzyl) thiourea [7, 11]: 34%; OSI Time [7, 12]: 37.1 h |
| – | – | – | – | – | – | COc1cccc(NC(=S)Nc2cccc(OC)c2)c1 [1,3-bis(3-methoxyphenyl)-2-thiourea] | – | OSI time lower than for 1,3-di-(3-methoxybenzyl) thiourea [7, 11]: 84%; OSI Time [7, 12]: 27.0 h |
| 24 min | 34090 | 1420 | 2760 µg/mL (≈ 8350 µM) | 1930 µg/mL (≈ 5830 µM) | > 200 °C | COc1ccc(C(=O)NC(=S)NCc2cccc(OC)c2)cc1 [1-(3-methoxybenzyl)-3-(4-methoxybenzoyl) thiourea] | 58 µg/mL (≈ 176 µM) | – |
| 26 min | 2357 | 0.0 | 1050 µg/mL (≈ 3670 µM) | 1040 µg/mL (≈ 3620 µM) | > 200 °C | COc1cccc(CNC(=S)NCc2ccccc2)c1 [1-(3-methoxybenzyl)-3-benzyl thiourea] | 31.6 µg/mL (≈ 110 µM) | – |
| 41 min | 2625 | 0.0 | 1040 µg/mL (≈ 2860 µM) | 909 µg/mL (≈ 2490 µM) | 273 °C | CCCCCCCCCCCCNC(=S)NCc1cccc(OC)c1 [1-(3-methoxybenzyl)-3-dodecyl thiourea] | 3.8 µg/mL (≈ 10.4 µM) | Oxidative stability in the RBOT test, in words ([1]; addition of 0.1% compound): doubled; toxicity against brine shrimp, in words [4]: high enough to consider its use in therapeutic tests for killing cancer cells; behaviour upon the addition of water [8]: precipitated out of solution |
| 15 min | 850 | 0.0 | 280 µg/mL (≈ 624 µM) | 147 µg/mL (≈ 328 µM) | > 200 °C | CCCCCCCCCCCCCCCCCCNC(=S)NCc1cccc(OC)c1 [1-(3-methoxybenzyl)-3-octadecyl thiourea] | 62.5 µg/mL (≈ 139 µM) | behaviour upon the addition of water [8]: precipitated out of solution |
| – | – | – | – | – | – | COc1cccc(C=O)c1 [3-methoxybenzaldehyde] | – | OSI Time [7, 13]: 17.5 h; OSI Time [7, 14]: 17.4 h; OSI Time [7, 15]: 18.9 h |
| – | – | – | – | – | – | COc1cccc(CN)c1 [3-methoxybenzyl amine] | – | OSI Time [7, 13]: 22.9 h; OSI Time [7, 14]: 27.3 h; OSI Time [7, 15]: 32.6 h |
| – | – | – | – | – | – | COc1cccc(CN=C=S)c1 [3-methoxybenzyl isothiocyanate] | – | OSI Time [7, 13]: 19.1 h; OSI Time [7, 14]: 22.9 h; OSI Time [7, 15]: 24.0 h |
| – | – | – | – | – | – | COc1cccc(CC#N)c1 [3-methoxyphenyl acetonitrile] | – | OSI Time [7, 13]: 18.6 h; OSI Time [7, 14]: 19.2 h; OSI Time [7, 15]: 19.9 h |
| – | – | – | – | – | – | Cc1c(C)c2c(c(C)c1O)CC[C@@](C)(CCC[C@H](C)CCC[C@H](C)CCCC(C)C)O2 [D-α-tocopherol, reference compound] | – | LC50 [4]: >1000 µg/mL |
| – | – | – | – | – | – | O=C1O[C@H]([C@@H](O)CO)C(O)=C1O [ascorbic acid, reference compound] | 315 µg/mL (≈ 1790 µM) | – |
| – | – | – | – | – | – | COc1ccc(O)c(C(C)(C)C)c1 [butylated hydroxy aniline (BHA), butylated hydroxy aniline, reference compound] | – | LC50 [4]: 12.2 µg/mL (≈ 67.7 µM) |
| – | 22350 | 54 | – | – | – | O=C(O)/C=C/c1ccccc1 [trans-cinnamic acid, reference compound] | – | – |

| SMILES | Oxidative Stability (RBOT) [1] | UVBMAX Molar Absorptivity [2] | UVAMAX Molar Absorptivity [2] | solubility at 4 h [5, 9] | solubility at 4 h [5, 10] | Decomposition Temperature [6] | LC50 at 24 h [3] | other results |
| --- | --- | --- | --- | --- | --- | --- | --- | --- |
| C=CCNC(=S)NCc1cccc(OC)c1 | 24 min | 2852 | 0.0 | 1670 µg/mL (≈ 7070 µM) | 981 µg/mL (≈ 4150 µM) | > 200 °C | – | LC50 [3]: 232 µg/mL (≈ 982 µM); toxicity against brine shrimp, in words [4]: low toxicity |
